The values that follow come from US20140023611A1 (priority 2010, published 2014).

One data set deals with T1, rat NaP2b (SLC34A2) (Rattus norvegicus, UniProt Q9JJ09).
T1 construct: host or cells: HEK293
T1 sequence (Q9JJ09 1-695): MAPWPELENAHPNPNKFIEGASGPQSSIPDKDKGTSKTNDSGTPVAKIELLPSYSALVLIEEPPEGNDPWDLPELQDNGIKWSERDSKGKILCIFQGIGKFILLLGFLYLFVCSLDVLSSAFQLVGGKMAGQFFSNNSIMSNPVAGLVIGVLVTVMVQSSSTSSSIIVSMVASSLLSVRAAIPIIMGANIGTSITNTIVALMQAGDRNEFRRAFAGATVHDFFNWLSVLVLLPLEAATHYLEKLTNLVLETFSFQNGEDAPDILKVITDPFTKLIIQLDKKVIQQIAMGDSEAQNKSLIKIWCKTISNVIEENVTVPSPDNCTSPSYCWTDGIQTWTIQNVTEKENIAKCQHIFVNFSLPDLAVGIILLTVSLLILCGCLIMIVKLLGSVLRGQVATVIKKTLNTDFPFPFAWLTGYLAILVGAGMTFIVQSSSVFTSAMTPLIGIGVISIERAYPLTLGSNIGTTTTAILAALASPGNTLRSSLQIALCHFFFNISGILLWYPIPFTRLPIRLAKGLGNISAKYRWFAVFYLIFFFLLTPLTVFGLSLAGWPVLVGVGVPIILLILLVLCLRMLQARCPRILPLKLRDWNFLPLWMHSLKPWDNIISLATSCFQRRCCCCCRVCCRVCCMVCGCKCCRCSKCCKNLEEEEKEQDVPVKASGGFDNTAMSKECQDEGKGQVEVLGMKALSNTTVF
The experiment in a line: Inhibition of NaP2b-mediated Pi (33P) uptake in transfected HEK293 cells, rat NaP2b. It is filed as cell-based. The note with it: 33P Pi uptake, 0.1 mM phosphate, value given as pIC50 range. The gist of the method:
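HEK293 cells were transiently transfected with NaP2b cDNA using Lipofectamine and grown near confluence. Compounds were tested at twelve concentrations from 0.1 nM to 30 uM in duplicate, and 33P-phosphate uptake was counted by scintillation after lysis. Results are expressed as pIC50.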

Data set [1] in a line: Stability of compounds in simulated gastric fluid (SGF). In kind it is in vitro ADME. The note with it: simulated gastric fluid (3 mg/mL pepsin), incubation time 6 hr, relative to t=0. As for the experimental part: (§1) Test compounds were incubated at […] in simulated gastric fluid (SGF; standard USP solution with 3 mg/mL pepsin) or simulated intestinal fluid (SIF; standard USP solution with 3 mg/mL pancreatin) for 3 hr or 6 hr. HPLC-UV or HPLC-MS were used to determine test compound levels using peak area %. Results (Table 14) were reported as the percentage of test compound remaining after incubation in a given condition relative to test compound present at t=0 in the same condition.

Data set [2] can be described thus: Stability of compounds in simulated intestinal fluid (SIF). The note with it: simulated intestinal fluid (3 mg/mL pancreatin), incubation time 6 hr, relative to t=0. It is filed as in vitro ADME. On the procedure:
as §1

Data set [3] in a line: Determination of compound Cmax and AUC after oral gavage (plasma LC-MS/MS). In kind it is in vivo, Sprague-Dawley rats. The note with it: Sprague-Dawley, rat, plasma, po, Structure (I) examples, Table 15, actual oral dose 3-15 mg/kg, plasma 0.5-4 h. The gist of the method: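 Sprague-Dawley rats dosed by oral gavage at nominal 2.5 or 10 mg/kg; blood drawn at 0.5, 1, 2 and 4 h into K2EDTA. Plasma protein-precipitated with acetonitrile plus internal standard and analysed by LC-MS/MS against a plasma standard curve to derive Cmax and AUC.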

One may read the IC50 as the concentration at which inhibition is half-maximal. Low values mean greater potency, high ones weaker potency. The term AUC denotes concentration integrated over time. Usually Cmax stands for the maximum level reached in the sampled fluid or tissue.

`O=C(NCc1cccc(C(F)(F)F)c1)c1ccnc(-c2cc(N3CCCCC3)ccc2NC(=O)c2cccc(CSCCOCCOCCOCCOCCC(=O)N(CCO)CCO)c2)c1` [Example 151, 2-(2-(3-(20-hydroxy-18-(2-hydroxyethyl)-17-oxo-5,8,11,14-tetraoxa-2-thia-18-azaicosyl)benzamido)-5-(piperidin-1-yl)phenyl)-N-(3-(trifluoromethyl)benzyl)isonicotinamide] had an IC50 against rat NaP2b (SLC34A2) of 1 to 7.94 µM. The “% remaining, SGF” value in data set [1] is listed as more than 80%. For the same molecule, the “% remaining, SIF” value in data set [2] is 40-60%. Moreover, in data set [3], the AUC is less than 10 ng·h/mL and the Cmax is less than 10 ng/mL.
The like results for `CCN(CC)CCN(C)C(=O)CCOCCOCCOCCOCCSCc1cccc(C(=O)Nc2ccc(N3CCCCC3)cc2-c2cc(C(=O)NCc3cccc(C(F)(F)F)c3)ccn2)c1` [Example 152, 2-(2-(3-(21-ethyl-18-methyl-17-oxo-5,8,11,14-tetraoxa-2-thia-18,21-diazatricosyl)benzamido)-5-(piperidin-1-yl)phenyl)-N-(3-(trifluoromethyl)benzyl)isonicotinamide] were, in that order, 1 to 7.94 µM, more than 80%, more than 80%, less than 10 ng·h/mL and less than 10 ng/mL.
The corresponding values for `CCN(CC)c1ccc(NC(=O)c2cccc(CSCCOCCOCCOCCOCCC(=O)O)c2)c(-c2cc(C(=O)N[C@H]3CCCc4ccccc43)ccn2)c1` [Example 157, (S)-1-(3-(4-(diethylamino)-2-(4-(1,2,3,4-tetrahydronaphthalen-1-ylcarbamoyl)pyridin-2-yl)phenylcarbamoyl)phenyl)-5,8,11,14-tetraoxa-2-thiaheptadecan-17-oic acid] are less than 1 µM, more than 80%, more than 80%, less than 10 ng·h/mL and less than 10 ng/mL.
The like results for `CCN(CC)c1ccc(NC(=O)c2cccc(CSCCOCCOCCOCCOCCC(=O)NCCOCCOCCOCCOCCOCCOCCOCCOC)c2)c(-c2cc(C(=O)N[C@H]3CCCc4ccccc43)ccn2)c1` [Example 157.1, (S)-2-(5-(diethylamino)-2-(3-(27-oxo-2,5,8,11,14,17,20,23,30,33,36,39-dodecaoxa-42-thia-26-azatritetracontan-43-yl)benzamido)phenyl)-N-(1,2,3,4-tetrahydronaphthalen-1-yl)isonicotinamide] were, in that order, 1 to 7.94 µM, more than 80%, more than 80%, less than 30 ng·h/mL and less than 10 ng/mL.
In turn, `CCN(CC)c1ccc(NC(=O)c2cccc(CSCCOCCOCCOCCOCCC(=O)NCCOCCOCCOCCOCCOCCOCCOCCOC)c2)c(-c2cc(C(=O)NCc3cccc(C(F)(F)F)c3)ccn2)c1` [Example 165, 2-(5-(diethylamino)-2-(3-(27-oxo-2,5,8,11,14,17,20,23,30,33,36,39-dodecaoxa-42-thia-26-azatritetracontan-43-yl)benzamido)phenyl)-N-(3-(trifluoromethyl)benzyl)isonicotinamide] showed an IC50 on rat NaP2b (SLC34A2) of 1 to 7.94 µM. Besides, in data set [1], the “% remaining, SGF” value was more than 80%. Also, the “% remaining, SIF” value in data set [2] is listed as more than 80%. Further, in data set [3], the AUC is less than 30 ng·h/mL and the Cmax is less than 10 ng/mL.
`CN(CCN1CCC[C@H]1C(=O)N(C)CCOCCOCCOCCC(=O)O)C(=O)c1cccc(C(=O)Nc2ccc(N3CCCCC3)cc2-c2cc(C(=O)N[C@H]3CCCc4ccccc43)ccn2)c1` [Example 191, 2-Methyl-1-((S)-1-(2-(N-methyl-3-((4-(piperidin-1-yl)-2-(4-(((S)-1,2,3,4-tetrahydronaphthalen-1-yl)carbamoyl)pyridin-2-yl)phenyl)carbamoyl)benzamido)ethyl)pyrrolidin-2-yl)-1-oxo-5,8,11-trioxa-2-azatetradecan-14-oic acid] showed an IC50 at rat NaP2b (SLC34A2) of 10 to 31.6 µM. Further, the “% remaining, SGF” value in data set [1] is given as more than 80%. For the same molecule, the “% remaining, SIF” value in data set [2] is given as more than 80%. In data set [3], this molecule yielded an AUC of less than 10 ng·h/mL and a Cmax of less than 10 ng/mL.
On rat NaP2b (SLC34A2), `CN(CCN1CCC[C@H]1C(=O)NCCOCCOCCOCCC(=O)O)C(=O)c1cccc(C(=O)Nc2ccc(N3CCCCC3)cc2-c2cc(C(=O)N[C@H]3CCCc4ccccc43)ccn2)c1` [Example 193, 1-((S)-1-(2-(N-methyl-3-((4-(piperidin-1-yl)-2-(4-(((S)-1,2,3,4-tetrahydronaphthalen-1-yl)carbamoyl)pyridin-2-yl)phenyl)carbamoyl)benzamido)ethyl)pyrrolidin-2-yl)-1-oxo-5,8,11-trioxa-2-azatetradecan-14-oic acid] gave an IC50 of 10 to 31.6 µM. For the same molecule, the “% remaining, SGF” value in data set [1] is more than 80%. Further, the “% remaining, SIF” value in data set [2] was more than 80%. In data set [3], this molecule yielded an AUC of less than 30 ng·h/mL and a Cmax of less than 10 ng/mL.
Turning to `COCCN(C)C(=O)N1CCN(CCN(C)Cc2cccc(C(=O)Nc3ccc(N4CCCCC4)cc3-c3cc(C(=O)NCc4cccc(C(F)(F)F)c4)ccn3)c2)CC1` [Example 209, N-(2-methoxyethyl)-N-methyl-4-(2-(methyl(3-(4-(piperidin-1-yl)-2-(4-(3-(trifluoromethyl)benzylcarbamoyl)pyridin-2-yl)phenylcarbamoyl)benzyl)amino)ethyl)piperazine-1-carboxamide], the IC50 against rat NaP2b (SLC34A2) is 1 to 7.94 µM. For the same molecule, in data set [1], the “% remaining, SGF” value is more than 80%. Further, the “% remaining, SIF” value in data set [2] is 60-80%. Moreover, in data set [3], the AUC is less than 30 ng·h/mL and the Cmax was less than 30 ng/mL.
For the molecule `COCCN(C)C(=O)N1CCN(CCN(C)Cc2cccc(C(=O)Nc3ccc(N4CCCCC4)cc3-c3cc(C(=O)NCc4cccc(C(F)(F)F)c4)ccn3)n2)CC1` [Example 210, N-(2-methoxyethyl)-N-methyl-4-(2-(methyl((6-(4-(piperidin-1-yl)-2-(4-(3-(trifluoromethyl)benzylcarbamoyl)pyridin-2-yl)phenylcarbamoyl)pyridin-2-yl)methyl)amino)ethyl)piperazine-1-carboxamide], the IC50 on rat NaP2b (SLC34A2) was 10 to 31.6 µM. For the same molecule, the “% remaining, SGF” value in data set [1] is reported as more than 80%. For the same molecule, the “% remaining, SIF” value in data set [2] is on record as more than 80%. For the same molecule, in data set [3], the AUC was less than 30 ng·h/mL and the Cmax was less than 10 ng/mL.
`CN(CCOCCOCCOCCC(=O)O)C(=O)c1cccc(C(=O)Nc2ccc(Cl)cc2-c2cc(C(=O)NCc3cccc(C(F)(F)F)c3)ccn2)c1` [Example 238, 3-{2-[2-(2-{1-[3-({4-chloro-2-[4-({[3-(trifluoromethyl)phenyl]methyl}carbamoyl)pyridin-2-yl]phenyl}carbamoyl)phenyl]-N-methylformamido}ethoxy)ethoxy]ethoxy}propanoic acid] had an IC50 against rat NaP2b (SLC34A2) of 10 to 31.6 µM. For the same molecule, the “% remaining, SGF” value in data set [1] is listed as more than 80%. The “% remaining, SIF” value in data set [2] was more than 80%. For the same molecule, in data set [3], the AUC is less than 10 ng·h/mL and the Cmax is less than 10 ng/mL.
`CN(CCN1CCCC[C@H]1C(=O)N(C)CCOCCOCCOCCC(=O)OC(C)(C)C)C(=O)c1cccc(C(=O)Nc2ccc(N3CCCCC3)cc2-c2cc(C(=O)N[C@H]3CCCc4ccccc43)ccn2)c1` [Example 240, tert-butyl 2-methyl-1-((S)-1-(2-(N-methyl-3-(4-(piperidin-1-yl)-2-(4-((S)-1,2,3,4-tetrahydronaphthalen-1-ylcarbamoyl)pyridin-2-yl)phenylcarbamoyl)benzamido)ethyl)piperidin-2-yl)-1-oxo-5,8,11-trioxa-2-azatetradecan-14-oate] gave a half-inhibitory concentration (IC50) against rat NaP2b (SLC34A2) of 1 to 7.94 µM. For the same molecule, the “% remaining, SGF” value in data set [1] is more than 80%. Also, the “% remaining, SIF” value in data set [2] is reported as more than 80%. In data set [3], this molecule had an AUC of less than 10 ng·h/mL and a Cmax of less than 10 ng/mL.
Consider `CN(CC(=O)N1CCN(CCOCCO)CC1)C(=O)c1cccc(C(=O)Nc2ccc(N3CCCCC3)cc2-c2cc(C(=O)N[C@H]3CCCc4ccccc43)ccn2)c1` [Example 246, (S)—N1-(2-(4-(2-(2-hydroxyethoxy)ethyl)piperazin-1-yl)-2-oxoethyl)-N1-methyl-N3-(4-(piperidin-1-yl)-2-(4-(1,2,3,4-tetrahydronaphthalen-1-ylcarbamoyl)pyridin-2-yl)phenyl)isophthalamide], for which the IC50 on rat NaP2b (SLC34A2) is 1 to 7.94 µM. Moreover, the “% remaining, SGF” value in data set [1] was more than 80%. The “% remaining, SIF” value in data set [2] is reported as more than 80%. In data set [3], this molecule returned an AUC of less than 10 ng·h/mL and a Cmax of less than 10 ng/mL.
